Test results taken from patent US20210393662A1, “USE OF SGLT2 INHIBITORS TO TREAT PRIMARY SCLEROSING CHOLANGITIS” (AVOLYNT, priority 2018, published 2021).
“Also recorded” adds a separate entry of the source.

Legend:
[1] = Plasma pharmacokinetics after oral compressed IR tablet; type: in vivo
Text: Oral dosage forms according to the invention are typically tablets or capsules. Tablets can be obtained by direct compression of the mixed components of a dosage form, including an effective dosage amount of remogliflozin etabonate, and selected excipients, like cellulose derivatives, metacrylates, chitosan, carboxymethylstarch, or mixtures thereof. For example, a compressed tablet according to the invention, can be prepared by granulating a SGLT2 inhibitor with microcrystalline cellulose and croscarmellose sodium with a water and povidone solution. The resulting granules are dried, milled, and then blended with mannitol, microcrystalline cellulose, and croscarmellose. The blend is lubricated with magnesium stearate and compressed. […] Indeed, Tmax for an IR remogliflozin etabonate oral dosage form according to the invention occurs at 1 hour, or less, following ingestion of the dosage form by a subject.

TIA mice = assay: TIA murine model of PSC, liver histology and survival after 7 weeks on 0.03% remogliflozin etabonate diet; type: in vivo, mouse; details: for periportal and biliary inflammation / proliferation of bile ductules: 0.03% in chow from 4 weeks of age
Text: The following Examples describe the utilization of a murine model of […] (“PSC”) to assess the effectiveness of a treatment regimen based on the oral administration of remogliflozin etabonate. The murine PSC model is based on mice that are deficient for the expression of tumor necrosis factor alpha (“TNFα”), interleukin 10 (“IL-10”), and activation-induced cytidine deaminase (“AICDA”). As the mice are deficient in TNF, IL-10, and AICDA, they are referred to, herein, as “TIA” mice.
Moreover, as AICDA is required for immunoglobulin (“Ig”) class switching, TIA mice lack IgG and IgA, a phenotype analogous to humans with hyper-IgM syndrome. Therefore, with the combination of AICDA deficiency with the risk factors associated with TNFα and IL-10 deficiencies, TIA mice also develop liver and biliary inflammation reminiscent of PSC symptoms in humans. Accordingly, the TIA model is useful for investigating mechanisms that act early in PSC pathogenesis, as well as treatments that can prevent progression to PSC.
Example 1. Orally-administered remogliflozin etabonate reduces inflammatory cell infiltration, bile ductular proliferation, and interface hepatitis in TIA mice. TIA mice were created by first breeding TNFα knock out (“KO”) C57BL/6 mice, (strain B6.129S-Tnf^tm1Gkl/J, stock #005540, Jackson Laboratories, Bar Harbor, Me.) with IL-10 KO mice (strain B10.129P2(B6)-IL10^tm1Cgn/J, Stock No. 002251, Jackson Laboratories) to produce a population of mice that were deficient in TNFα and IL-10. Because mice with a TNFα−/− and IL10−/− genotype spontaneously develop inflammatory bowel disease (“IBD”) (Hale 2012), a condition associated with poor breeding success (Nagy 2016), the mice needed for further breeding to generate an AICDA population, were generated by breeding offspring with a TNFα−/− and IL10+/− genotype with AICDA−/− mice, which were obtained from Dr. Tasuku Honjo (Muramatsu 2000)), to produce a population of TNFα−/−, IL10−/−, and AICDA+/−(“TI-hetA”) males and females. In turn, TI-hetA pairs were bred to generate populations that were 25% TIA mice, and 50% non-colitis-susceptible TI-hetA littermates that could be used as control populations. All populations were exposed to the same environment from birth. The mice were housed in polycarbonate micro-isolator cages, in individually ventilated racks, under barrier conditions that excluded all known pathogens, including Helicobacter pylori and Norovirus. Mice had ad libitum access to water, and to a standard diet (PicoLab Mouse Diet 20/5058, LabDiet, St. Louis, Mo., USA).
At four (4) weeks of age, TIA (40) and TI-hetA (22) mice were randomized into experimental groups that received either a standard diet (20 TIA and 12 het), or a standard diet formulated 0.03% remogliflozin etabonate (20 TIA and 10 het) (Avolynt Inc., USA). The mice were maintained on this diet for seven (7) weeks. Body weights were obtained three (3) times, weekly, to assess the general health of mice, and to track the development of inflammatory bowel disease (IBD). Glycosuria in the experimental groups was assessed by applying freshly voided urine directly to the glucose test patch on an Accutest® URS-10 urinary reagent test strips (Jant Pharmaceutical Corp., Encino, Calif., USA). Mice were humanely euthanized before reaching the experimental endpoint, of eleven (11) weeks of age, if they lost>15% body weight, or developed rectal prolapse.
To characterize biliary lesions in TIA mice at the end of the 7 week treatment period, liver tissue was obtained from the remogliflozin-treated, and untreated groups, for histologic examination. The excised liver tissue was fixed in Carnoy's fixative solution, and processed into paraffin blocks. The paraffin blocks were sectioned, and stained with Hematoxylin and eosin (H&E) for pathologic analysis. The H&E-stained sections were scored by an American Board of Pathology-certified pathologist. […]

[2] = TIA mice, H&E liver sections at 11 weeks, vs untreated
[3] = TIA mice, H&E liver sections at 11 weeks, vs untreated, listed as Remo

CCOC(=O)OC[C@H]1O[C@@H](Oc2nn(C(C)C)c(C)c2Cc2ccc(OC(C)C)cc2)[C@H](O)[C@@H](O)[C@@H]1O [remogliflozin etabonate]
Tmax ([1]; IR remogliflozin etabonate oral dosage form, following ingestion): ≤ 1 h | remogliflozin plasma concentration (plasma clearance to) ([1]; compressed IR tablet, 350 mg remogliflozin etabonate, oral, after 3 hrs): 40 ng/mL | maximum remogliflozin plasma concentration (Cmax) ([1]; compressed IR tablet, 350 mg remogliflozin etabonate, oral, at 1 hr post-ingestion): 160 ng/mL | number of TIA mice that required early euthanasia (TIA mice; Remo group versus control group): no statistical difference | early death (TIA mice; Remo group versus control group, not statistically significant): trend toward decreased early death | periportal and biliary inflammation (TIA mice; [2]): less inflammation | proliferation of bile ductules (TIA mice; [2]): reduces; also recorded: less proliferation | periportal and biliary inflammation (TIA mice; [3]): decrease | proliferation of bile ductules (TIA mice; [3]): decrease | inflammation at the interface between hepatic parenchyma and portal tracts (interface hepatitis) (TIA mice; TIA mice, 0.03% in diet for 7 weeks, H&E liver sections at 11 weeks, vs untreated): reduces; also recorded: less inflammation | development and progression of liver and biliary disease (PSC disease pathology) (TIA mice; TIA mice, 0.03% in diet for 7 weeks, vs standard diet): markedly less development and progression; also recorded: prevents the progression | inflammatory cell infiltration (TIA mice; TIA mice, orally administered): reduces
